The source of these data is patent publication US5472951A, “Stabilizer for phospholipid vesicles” (Chiba Flour Milling Co., Ltd., priority 1992, dated 1995).

What all share (format): physicochemical
A short description of series [1]: aggregation on addition of dextran: turbidity at 800 nm. The protocol: The precipitation of the vesicles was dispersed again to be 5 wt %, and thereto dextran (molecular weight of 40000) was added as a colloid osmotic pressure controller. The stability of the dispersion was observed by determination of turbidity at 800 nm.
The stability of the MPDSPE-modified vesicle was evaluated by adding, to the above dispersion, dextran (molecular weight: 4000) which is a colloid osmotic pressure controller, and measuring the turbidity from the absorbance at 800 nm. […] This proves the aggregation inhibition effect of the MPDSPE of the vesicle stabilizer of the present invention.
The resulting dispersion was treated with a microfluidizer at 2500 psi at 4° C. for 15 minutes to obtain a dispersion of SDSPE-modified vesicles having average particle diameter of 350±95 nm. This dispersion was centrifuged (100000 G, 30 minutes) to obtain a precipitate of vesicles. The precipitate was dispersed again into a solution to be 5% by weight. Occurrence of aggregation of the vesicles was tested by adding dextran (molecular weight 40000) to the dispersion and measuring the turbidity change at 800 nm. […] Therefrom the modification was confirmed to be effective to inhibition of aggregation caused by dextran.
5.0 g of a powdery lipid mixture containing the above STEC (DPPC:cholesterol:stearic acid:STEC=7:7:2:2 in molar ratio) was dispersed in 100 ml of saline, and the dispersion was stirred at 4° C. for 24 hours. The resulting dispersion was treated with a microfluidizer at 2500 psi at 4° C. for 15 minutes. This dispersion was centrifuged (10000 G, 30 minutes) to obtain precipitate of STEC-modified vesicles. The precipitate was dispersed again in to saline to be 5 wt %. The stability of the vesicles was evaluated by adding 2.5 wt % solution of dextran (molecular weight 40000) to the above vesicle layer and measuring the turbidity change at 800 nm. The STEC-modified vesicles caused the turbidity increase of 58% of that of the unmodified vesicles (DPPC:cholesterol:stearic acid=7:7:2 in molar ratio), thereby the inhibition effect of STEC, a vesicle stabilizer of the present invention being confirmed.

Series [2] is described as follows: particle diameter of modified vesicles. The note with it: mixed lipid vesicles, microfluidizer.
Series [3] can be described thus: introduction ratio of ODM into DODPC vesicles. The protocol: Polymerizable 2,4-octadecadienyl-0-α(β)-maltose (hereinafter referred to as "ODM") was prepared from maltose and 2,4-octadecadienol according to the method shown in Example 11. A solution of 2.0 mg of this ODM in 1 ml of chloroform was mixed with a solution of 200 mg of di(2,4-octadecadienoyl)phosphatidylcholine (hereinafter referred to as "DODPC") as a polymerizable lipid in 5 ml of chloroform. The mixture was evaporated by a rotary evaporator to form a thin film on a wall of an eggplant-shape flask. 20 ml of pure water was added thereto, and agitated with glass beads by a vortex mixer. The resulting ODM-modified vesicle dispersion was treated by an extruder to prepare a dispersion of nearly uniform particle diameters. The vesicle dispersion was irradiated with γ-ray to copolymerize the ODM and the polymerizable lipid, DODPC. A portion of the irradiated dispersion was diluted fivefold with pure water and was left standing at 4° C. for 24 hours. The introduction ratio of ODM was measured by centrifuging the diluted and undiluted dispersions (300000 G, 60 minutes) respectively and determining the ODM in the supernatant by a phenol-sulfuric acid method.

A short description of series [4]: turbidity increase of copolymerized vesicle dispersion, 4 °C for 24 hours. As to conditions: before fivefold dilution.
A short description of series [5]: introduction ratio into mixed lipid vesicles. As to conditions: dimyristoyl phosphatidylcholine:cholesterol:myristic acid:LPMS 7:7:2:0.3. The protocol: The ratio of introduction of the stabilizer into the vesicles is determined by treating the dispersion of the vesicles by gel filtration or ultracentrifuge to remove the superfluous stabilizer which has not been introduced into the vesicles, and quantitatively determining saccharide in respective fractions by a phenol-sulfuric acid method. The stabilizer of the present invention, when employed in an amount of from 2 to 10 mol %, is introduced into the vesicles in a ratio of 90% or more.
The effect of the LPMS of the present invention on stabilization of vesicles was evaluated as follows. A powdery lipid mixture containing LPMS was prepared from dimyristoyl phosphatidylcholine, cholesterol, myristic acid, and LPMS (in molar ratio of 7:7:2:0.3) was prepared by freeze-drying. 100 ml of saline was added to 10 g of the above powdery lipid mixture, and the mixture was stirred at 4° C. for 24 hours to prepare a liquid dispersion. […] The introduction ratio of the LPMS was 85% according to saccharide determination of the supernatant liquid after centrifugation.
500 mg of a powdery lipid mixture containing MPDSG of the present invention was prepared from DPPC, cholesterol, distearyl phosphatidic acid, and MPDSG (in molar ratio of 10:9:0.9:0.5) was prepared by freeze-drying from benzene. […]

For the molecule `CCCCCCCCCCCCCCCCCC(=O)OCC(COP(=O)(O)OCCNC(=O)[C@H](O)[C@@H](O)[C@H](O[C@H]1O[C@H](CO)[C@@H](O[C@H]2O[C@H](CO)[C@@H](O[C@H]3O[C@H](CO)[C@@H](O[C@H]4O[C@H](CO)[C@@H](O)[C@H](O)[C@H]4O)[C@H](O)[C@H]3O)[C@H](O)[C@H]2O)[C@H](O)[C@H]1O)[C@H](O)CO)OC(=O)CCCCCCCCCCCCCCCCC` (stereo partly drawn) [MPDSPE, Maltopentaose distearoyl phosphatidyl ethanolamide], the “turbidity change on addition of dextran (in words)” value (“turbidity change on addition” below) in series [1] is on record as “did not show turbidity rise”. In addition, the average diameter in series [2] was 320±115 nm.

For `CCCCCCCCCCCCCC=CC=CCOC1O[C@H](CO)[C@@H](O[C@H]2O[C@H](CO)[C@@H](O)[C@H](O)[C@H]2O)[C@H](O)[C@H]1O` (stereo partly drawn) [ODM, 2,4-octadecadienyl-0-α(β)-maltose], the “introduction ratio of ODM” value in series [3] (copolymerized by γ-ray, both diluted (fivefold) and undiluted dispersions) was 94.2%; in series [3] (not copolymerized, after fivefold dilution) it was 66.9%; in series [3] (not copolymerized, before fivefold dilution), 93.8%. In addition, the “turbidity increase relative to unmodified vesicles” value in series [4] was 10.9%.

Consider `CCCCCCCCCCCCCCCCCC(=O)OCC(COP(=O)(O)OCCNC(=O)[C@H](O)[C@@H](O)[C@H](O[C@@H]1O[C@H](CO)[C@@H](O)[C@H](O)[C@H]1O)[C@H](O)CO)OC(=O)CCCCCCCCCCCCCCCCC` (stereo partly drawn) [SDSPE, cellobiose distearoylphosphatidyl ethanolamine], for which the “turbidity change on addition” value in series [1] was “little rise of turbidity”. For the same molecule, the average diameter in series [2] turned out to be 350±95 nm.

On to `CC(C)CCC[C@@H](C)[C@H]1CC[C@H]2[C@@H]3CC=C4C[C@@H](OCCOCCOCCOCCOC5O[C@H](CO)[C@@H](O[C@@H]6O[C@H](CO)[C@@H](O)[C@H](O)[C@H]6O)[C@H](O)[C@H]5O)CC[C@]4(C)[C@H]3CC[C@]12C` (stereo partly drawn) [STEC, cellobiosyl tetraethyleneglycosyl cholesterol], for which the “turbidity increase on dextran addition relative to unmodified vesicles” value in series [1] (2.5 wt % dextran (MW 40000), DPPC:cholesterol:stearic acid:STEC 7:7:2:2) worked out at 58%.

Regarding `CCCCCCCCCCCCCCCCCCOC1O[C@H](CO)[C@@H](O)[C@H](O[C@@H]2O[C@H](CO)[C@@H](O)[C@H](O[C@@H]3O[C@H](CO)[C@@H](O)[C@H](O[C@@H]4O[C@H](CO)[C@@H](O)[C@H](O[C@@H]5O[C@H](CO)[C@@H](O)[C@H](O)[C@H]5O)[C@H]4O)[C@H]3O)[C@H]2O)[C@H]1O` (stereo partly drawn) [LPMS, laminaripentaose monostearyl ether], the introduction ratio in series [5] is 85%. In series [1], the “turbidity change on addition” value is “did not give turbidity increase”. The average diameter in series [2] was 300±130 nm.
